From patent publication US5034548A, “Steroid derivatives useful as hypocholesterolemics” (E. I. Du Pont de Nemours and Company, priority 1990, dated 1991)
pIC50: −log10 of the molar value.

What was measured:
[1] = system: 3-Hydroxy-3-Methylglutaryl Coenzyme A Reductase (HMGR); experiment: HMGR Suppression Assay in digitonin-permeabilized CHO cells; format: cell-based, Chinese Hamster; conditions: for pIC50: 6 hr incubation at 37°, amount to suppress HMGR activity by 50% relative to controls; for effect on measured HMGR activity: tested under these same conditions
Experimental: The ability of the compounds of Formula I to suppress the activity of HMGR, the rate limiting enzyme of cholesterol biosynthesis, was tested as follows. Chinese Hamster Ovary (CHO) cells were divided twice weekly and were maintained in McCoy's 5A medium supplemented with 1% Cab-O-Sil delipidated Fetal Bovine Serum (FBS) (obtained from Gibco Laboratories, Chagrin Falls, Ohio). Cells were harvested during the logarithmic phase of growth and cell cultures were prepared by adding 0.5×10^6 cells to wash well in a 24 well cluster dish (obtained from Costar, Data Packaging Corp., Cambridge, Mass.) employing 1 mL of the above medium per each well. […] Control cells were treated in an identical fashion to those which received test compound, except they were incubated with the BSA and ethanol suspension only.
Specifically, the medium in each well was aspirated and the cells rinsed with a 50 mM solution of phosphate buffered saline (PBS). One mL of 30 μg/mL of digitonin in CSK buffer (prepared using 10 mM Pipes [piperazine-N,N'-bis(2-ethansulfonic)acid'], 100 mM KCl, 2.5 mM MgCl2, 300 mM sucrose, 1 mM EGTA, pH 6.8) was added to each well and incubated for 10 min at 22° to permeabilize the cells. The buffer was carefully aspirated and the wells were rinsed twice each time with 1 mL of PBS. HMGR activity was measured directly by adding 75 μL of PIB buffer (50 mM potassium phosphate, 1 mM Na2 EDTA, 10 mM dithiothreitol, pH 7.4) to each well and incubating the cells for 30 minutes at 37° as described above. […] HMG-Coenzyme A (15 DPM/pmol), pH 7.4. The assay mixture was incubated for 30 min at 37° and terminated by the addition of 70 μL of [^3 H]-mevalonic acid (35,000 DPM/assay), 0.15 mg/mL in 3 N HCl. The reaction was left to lactonize for an additional 30 min at 37° or overnight at room temperature.
Reaction products were separated by thin layer chromatography on silica gel G (obtained from Analtech, Newark, Del.) developed in an unsaturated environment with acetone:benzene (3:2, v:v). The band corresponding to mevalonolactone was identified by exposure to iodine vapor and was scraped into counting vials. The extent of conversion of starting substrate, HMG-CoA, to mevalonic acid was determined by liquid scintillation counting in Biofluor (obtained from New England Nuclear, Boston, Mass). Corrections for recovery and blank values were made for each sample. Protein determinations were made by the Bio-rad (Bio-Rad, Richmond, Cal.) dye binding assay according to the manufacturer's instruction using bovine serum albumin as standard. Cellular protein was solubilized from culture dishes by the addition of 20 μL of 16 N KOH and assayed directly for protein amount. Suppression values are expressed as the amount of compound required to suppress HMGR activity by 50% relative to that of the controls.

[2] = system: cholesterol synthesis in CHO cells; experiment: De novo cholesterol synthesis: incorporation of radiolabeled acetate into cholesterol in CHO cells; format: cell-based, Chinese Hamster; conditions: for Cholesterol Synthesis (DPMs): 17 hr + 2 hr with [14C]-acetic acid, Control 38855
Experimental: The ability of the compounds of Formula I to decrease de novo cholesterol synthesis was tested by measuring the incorporation of radiolabeled acetate into cholesterol synthesized in CHO cells. To conduct this experiment, CHO cells were plated at 0.3×10^6 cells per 15×60 mm tissue culture dish in 5 mL of McCoy's modified medium (Gibco Laboratories) containing 1% Cab-O-Sil delipidated FBS and incubated for 48 hours at 37° in a 5% CO2, 95% air environment. Test compounds in a 2.5% suspension of BSA (fatty acid free) in ethanol were then added to the cultures such that the final ethanol and BSA concentrations were 0.5% and […], respectively. Control cultures received ethanol and BSA alone. The cultures containing test compounds were then incubated at 37° in a 5% Co, 95% air environment for 17 hr before the addition of [1,2-^14 C]-acetic acid (57 μCi/mmol); obtained from New England Nuclear, Boston, Mass.) at a concentration of 10 μCi/mL for 2 additional hr.
The cells were harvested by washing the cells twice with 5 mL of cold PBS and scraping the cells into 1 mL PBS. The cell-containing solution was then transferred to 15 mL extraction tubes and treated with 1 mL of 90% methanol (containing 15% KOH, 100 μg/mL butylated hydroxytoluene). All samples were saponified for 1 hr at 80° and the non-saponifiable lipids then extracted with petroleum ether. The petroleum ether fractions were dried under nitrogen, resuspended in ethanol, counted and analyzed by reverse phase HPLC at 45° using an Ultrashpere Octyl column (from Altex Scientific Inc., Berkeley, Calif.) with a mobile phase of acetonitrile:methanol:water (44:44:12). The amount of cholesterol synthesis is measured by the amount of radiolabeled acetate incorporated into the cholesterol peak. The percent of cholesterol synthesis in the treated culture is calculated based upon the control culture.

[3] = target: T1, Lanosta-8,24-dien-3β-ol 14α-methyl demethylase (Rattus norvegicus, UniProt Q64654); experiment: Lanosta-8,24-dien-3β-ol 14α-Methyl Demethylase Inhibition Assay; format: biochemical; conditions: for pIC50: rat hepatic microsomal preparations, 100 μM lanost-8-en-3β-ol substrate, pH not given, test compounds 0 to 100 μM; for effect on lanosta-8,24-dien-3β-ol 14α-methyl demethylase activity: rat microsomal preparations
T1 construct: determined in rat depatic microsomal preparations; from tissue; host or cells: rat hepatic microsomes
T1 sequence (Q64654 1-503): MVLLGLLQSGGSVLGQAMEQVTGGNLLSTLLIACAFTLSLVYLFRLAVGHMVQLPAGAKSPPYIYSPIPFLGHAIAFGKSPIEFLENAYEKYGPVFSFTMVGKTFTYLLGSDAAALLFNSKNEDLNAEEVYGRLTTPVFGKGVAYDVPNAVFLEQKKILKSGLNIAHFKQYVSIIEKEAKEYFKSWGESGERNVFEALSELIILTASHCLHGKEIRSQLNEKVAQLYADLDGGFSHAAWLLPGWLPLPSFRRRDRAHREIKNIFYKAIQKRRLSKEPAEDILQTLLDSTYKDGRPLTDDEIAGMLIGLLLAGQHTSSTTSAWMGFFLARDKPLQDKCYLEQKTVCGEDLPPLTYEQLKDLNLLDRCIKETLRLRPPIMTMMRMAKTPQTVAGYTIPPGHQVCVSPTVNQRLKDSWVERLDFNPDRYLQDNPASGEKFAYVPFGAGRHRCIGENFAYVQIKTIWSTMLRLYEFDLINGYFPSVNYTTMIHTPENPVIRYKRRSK
Experimental: Lanosta-8,24-dien-3β-ol 14α-methyl demethylase activity was determined in rat depatic microsomal preparations as described in Trzaskos et al., J. Biol. Chem., 261, 16937-16942 (1986). Specifically, test compounds were added to assay mixtures as detergent suspensions with substrate employing 5 mg Triton WR-1339, 100 μM lanost-8-en-3β-ol substrate, and test compounds ranging from 0 to 100 μM. The inhibitor/substrate/detergent suspension was incubated with 2 mg microsomal protein for 5 min at 37° followed by a 10 min incubation initiated by the addition of cofactors required for the reaction. […] Inhibition values are expressed as the amount of compound required to inhibit lanosta-8,24-dien-3β-ol 14α-methyldemethylase activity by 50% relative to that of the controls.

[4] = Cricetulus griseus, 19 h, 10 μM, percent of control culture (100)

Row | SMILES | pIC50 [1] | pIC50 [3] | further results
1 | C=CC(O)[C@@]12CC[C@H]([C@H](C)CCCC(C)C)[C@@]1(C)CCC1=C2CC[C@H]2C(C)(C)[C@@H](O)CC[C@]12C (single isomer, unassigned) [Compound 11a, 4,4-dimethyl-14α-(1'-hydroxy-2'-propenyl)-5α-cholest-8-en-3β-ol] | 7.22 | – | Cholesterol Synthesis (DPMs) ([2]; 1 μM): 360 DPMs
2 | C=CC(O)[C@@]12CC[C@H]([C@H](C)CCCC(C)C)[C@@]1(C)CCC1=C2CC[C@H]2C(C)(C)[C@@H](O)CC[C@]12C (single isomer, unassigned) [Compound 12a, 4,4-dimethyl-14α-(1'-hydroxy-2'-propenyl)-5α-cholest-8-en-3β-ol] | 6.89 | 5.49 | Cholesterol Synthesis (DPMs) ([2]; 1 μM): 636 DPMs; activity at 1 µM ([2]; Cricetulus griseus, 19 h, 1 μM, percent of control culture (100)): 2%
3 | CC(C)=CCC[C@@H](C)[C@H]1CC[C@@]2(C)C3=C(CC[C@]12C)[C@@]1(C)CC[C@H](O)C(C)(C)[C@@H]1CC3 [Compound 1, lanosta-8,24-dien-3β-ol, reference compound] | – | – | effect on measured HMGR activity [1]: without effect; effect on lanosta-8,24-dien-3β-ol 14α-methyl demethylase activity [3]: clearly served as substrates
4 | CC(C)CCC[C@@H](C)[C@H]1CC[C@@]2(C(F)F)C3=C(CC[C@]12C)[C@@]1(C)CC[C@H](O)C(C)(C)[C@@H]1CC3 [Compound 9a, 32,32-difluoro-lanost-8-en-3β-ol] | 5.89 | 4.80 | Cholesterol Synthesis (DPMs) ([2]; 10 μM): 3615 DPMs; activity at 10 µM [2, 4]: 9%
5 | CC(C)CCC[C@@H](C)[C@H]1CC[C@@]2(C(F)F)C3=CC[C@H]4C(C)(C)[C@@H](O)CC[C@]4(C)[C@H]3CC[C@]12C [Compound 9b, 32,32-difluoro-lanost-7-en-3β-ol] | 5.85 | 4.43 | Cholesterol Synthesis (DPMs) ([2]; 10 μM): 10125 DPMs; activity at 10 µM [2, 4]: 26%
6 | CC(C)CCC[C@@H](C)[C@H]1CC[C@@]2(C=NO)C3=C(CC[C@]12C)[C@@]1(C)CC[C@H](O)C(C)(C)[C@@H]1CC3 [Compound 15a, lanost-8-en-32-aldoxime-3β-ol] | 7.40 | 5.96 | –
7 | CC(C)CCC[C@@H](C)[C@H]1CC[C@@]2(C=NO)C3=CC[C@H]4C(C)(C)[C@@H](O)CC[C@]4(C)[C@H]3CC[C@]12C [Compound 15b, lanost-7-en-32-aldoxime-3β-ol] | 5.85 | 5.52 | Cholesterol Synthesis (DPMs) ([2]; 0.5 μM): 1534 DPMs; activity at 0.5 µM ([2]; Cricetulus griseus, 19 h, 0.5 μM, percent of control culture (100)): 4%
8 | CC(C)CCC[C@@H](C)[C@H]1CC[C@@]2(C#N)C3=C(CC[C@]12C)[C@@]1(C)CC[C@H](O)C(C)(C)[C@@H]1CC3 [Compound 17a, 14α-cyano-4,4-dimethyl-5α-cholest-8-en-3β-ol] | 5.85 | 4.96 | –
9 | CC(C)CCC[C@@H](C)[C@H]1C[C@H](F)[C@@]2(C)C3=CC[C@H]4C(C)(C)[C@@H](O)CC[C@]4(C)[C@H]3CC[C@]12C [Compound 26b, 15α-fluoro-lanost-7-en-3β-ol] | 6.00 | < 4.00 | Cholesterol Synthesis (DPMs) ([2]; 10 μM): 12279 DPMs; activity at 10 µM [2, 4]: 32%
10 | CC(C)CCC[C@@H](C)[C@H]1C[C@H](F)[C@@]2(C)C3=CC[C@H]4C[C@@H](O)CC[C@]4(C)[C@H]3CC[C@]12C [Compound 27b, 15α-fluoro-14α-methyl-5α-cholest-7-en-3β-ol] | 6.30 | < 4.00 | –
11 | CC(C)CCC[C@@H](C)[C@H]1C[C@H](O)[C@@]2(O)C3=C(CC[C@]12C)[C@@]1(C)CC[C@H](O)C[C@@H]1CC3 [Compound 35a, 5α-cholest-8-en-3β,14α,15α-triol] | 6.40 | < 4.00 | –
12 | CC(C)CCC[C@@H](C)[C@H]1CC[C@H]2[C@@H]3CC=C4C[C@@H](O)CC[C@]4(C)[C@H]3CC[C@]12C [cholesterol] | – | – | effect on measured HMGR activity [1]: without effect; effect on lanosta-8,24-dien-3β-ol 14α-methyl demethylase activity [3]: without effect
13 | CC(C)CCC[C@@H](C)[C@H]1CC[C@@]2(C)C3=C(CC[C@]12C)[C@@]1(C)CC[C@H](O)C(C)(C)[C@@H]1CC3 [lanost-8-en-3β-ol, reference compound] | – | – | effect on measured HMGR activity [1]: without effect; effect on lanosta-8,24-dien-3β-ol 14α-methyl demethylase activity [3]: clearly served as substrates
